Tests used:
Type in all cases: in vivo
arterial blood pressure = assay: Hypotensive effects in the anesthetized dog; settings: Canis lupus familiaris, iv, read-out: Hypotensive effect; for inhibition in vivo at 0.01 mg/kg: 10 μg/kg; for inhibition in vivo at 0.03 mg/kg: 30 μg/kg
Method: (§1) Adult mongrel dogs were anesthetized with sodium pentobarbital (30 mg/kg i.v.). Effects of test compounds on arterial blood pressure, coronary arterial blood flow, vertebral blood flow, renal blood flow, left ventricular dp/dt max (dp/dt max) and urine volume were observed. The compounds were administered intravenously (i.v.) or intraduodenally (i.d.).

left coronary blood flow = assay: Coronary blood flow after injection into left coronary artery of anesthetized dogs; settings: intracoronary injection, anesthetized dog; for Increase in CBF ED50: dose to increase CBF by half of the effect of nifedipine (3 μg); for Decrease in CBF ED-50: dose to decrease CBF by 50% from basal value
Method: (§2) Dogs of either sex were anesthetized with sodium pentobarbital (30 mg/kg i.v.). Heparin (500 U/kg i.v.) was administered before making preparation. Under artificial respiration (18 strokes/min, 20 ml/kg tidal volume), left ventricular dp/dt max, and left coronary blood flow were measured (1). Test compounds were injected into the left coronary artery in a volume of 10 or 30 μl. The effects of compounds on coronary blood flow were observed and presented generally as ED50, a dose required to increase coronary blood flow by a half of the effects of nifedipine (3 μg). Similarly, the effects on dp/dt max were observed and shown as ED30, a dose required to increase dp/dt max by 30% of the efffects of isoproterenol (0.1 μg).

[1] = system: left ventricular dp/dt max; assay: Left ventricular dp/dt max after injection into left coronary artery of anesthetized dogs; settings: intracoronary injection, anesthetized dog; dose to increase dp/dt max by 30% of effect of isoproterenol (0.1 μg)
Method: as §2

[2] = system: coronary arterial blood flow; assay: Coronary vasodilating effects in the anesthetized dog; settings: Canis lupus familiaris, iv, read-out: Increase in coronary blood flow; for change in vivo at 0.3 mg/kg: 300 μg/kg; for change in vivo at 0.01 mg/kg: 10 μg/kg; for change in vivo at 0.03 mg/kg: 30 μg/kg
Method: as §1

[3] = system: left ventricular dp/dt max; assay: Cardiotonic effects in the anesthetized dog; settings: Canis lupus familiaris, iv, 300 μg/kg; read-out: Increase in dp/dt max
Method: as §1

Row | SMILES | Increase in CBF ED50 (left coronary blood flow) | Increase in dp/dt max ED30 [1] | also measured
1 | CCOC(=O)C1=C(C)Nc2ccnn2C1c1ccccc1C(F)(F)F (single isomer, unassigned) [(20), 6-Ethoxycarbonyl-5-methyl-7-(2-trifluoromethylphenyl)-4,7-dihydropyrazolo[1,5-a]pyrimidine, optical isomer (-)] |  |  | inhibition in vivo at 0.01 mg/kg (arterial blood pressure): 22%
2 | CC1=C(C(=O)OC(CN2CCCCC2)c2ccccc2)C(c2cccc([N+](=O)[O-])c2)n2nccc2N1 (stereo not drawn) [(2), 1-Phenyl-2-piperidinoethyl 5-methyl-7-(3-nitrophenyl)-4,7-dihydropyrazolo[1,5-a]pyrimidine-6-carboxylate (β-form of diastereomer)] | 1.5 µg | > 10 µg | inhibition in vivo at 0.03 mg/kg (arterial blood pressure): 37%
3 | CCOC(=O)C1=C(C)Nc2ccnn2C1c1ccccc1Cl (stereo not shown) [(4), 7-(2-Chlorophenyl)-6-ethoxycarbonyl-5-methyl-4,7-dihydropyrazolo[1,5-a]pyrimidine] |  |  | change in vivo at 0.3 mg/kg [2]: 33%
4 | CCOC(=O)C1=C(CO)Nc2ccnn2C1c1ccccc1C(F)(F)F (stereo not shown) [(5), 6-Ethoxycarbonyl-5-hydroxymethyl-7-(2-trifluoromethylphenyl)-4,7-dihydropyrazolo[1,5-a]pyrimidine] |  |  | change in vivo at 0.3 mg/kg [2]: 43%; change in vivo at 0.3 mg/kg [3]: 20%
5 | CC1=C(C(=O)OCC2CC2)C(c2ccccc2C(F)(F)F)n2nccc2N1 (stereo not shown) [(6), 6-Cyclopropylmethyloxycarbonyl-5-methyl-7-(2-trifluoromethylphenyl)-4,7-dihydropyrazolo[1,5-a]pyrimidine] |  |  | change in vivo at 0.01 mg/kg [2]: 45%
6 | CC1=C(C(=O)OCC2CC2)C(c2ccccc2C(F)(F)F)n2ncc(C#N)c2N1 (stereo not shown) [(7), 3-Cyano-6-cyclopropylmethyloxycarbonyl-5-methyl-7-(2-trifluoromethylphenyl)-4,7-dihydropyrazolo[1,5-a]pyrimidine] | 2.0 µg | > 30 µg | inhibition in vivo at 0.01 mg/kg (arterial blood pressure): 20%; change in vivo at 0.01 mg/kg [2]: 52%
7 | COCC(OC(=O)C1=C(C)Nc2ccnn2C1c1ccccc1C(F)(F)F)c1ccccc1 (stereo not drawn) [(8), 1-Phenyl-2-methoxyethyl 5-methyl-7-(2-trifluoromethylphenyl)-4,7-dihydropyrazolo[1,5-a]pyrimidine-6-carboxylate (β-form of diastereomer)] |  |  | change in vivo at 0.01 mg/kg [2]: 33%
8 | CC1=C(C(=O)OCC(C)C)C(c2ccccc2C(F)(F)F)n2nccc2N1 (stereo not shown) [(12), 6-Isobutoxycarbonyl-5-methyl-7-(2-trifluoromethylphenyl)-4,7-dihydropyrazolo[1,5-a]pyrimidine] | 1.8 µg | > 300 µg | 
9 | CCOC(=O)C1=C(C)Nc2c(C#N)cnn2C1c1ccccc1C(F)(F)F (stereo not shown) [(14), 3-Cyano-6-ethoxycarbonyl-5-methyl-7-(2-trifluoromethylphenyl)-4,7-dihydropyrazolo[1,5-a]pyrimidine] | 1.6 µg | > 100 µg | inhibition in vivo at 0.01 mg/kg (arterial blood pressure): 20%; change in vivo at 0.01 mg/kg [2]: 54%
10 | CCOC(=O)C1=C(C)Nc2c(Cl)cnn2C1c1ccccc1C(F)(F)F (stereo not shown) [(16), 3-Chloro-6-ethoxycarbonyl-5-methyl-7-(2-trifluoromethylphenyl)-4,7-dihydropyrazolo[1,5-a]pyrimidine] |  |  | inhibition in vivo at 0.3 mg/kg (arterial blood pressure; 300 μg/kg): 29%; change in vivo at 0.3 mg/kg [2]: 113%
11 | CCOC(=O)C1=C(C)Nc2ccnn2C1c1ccccc1SCc1ccccc1 (stereo not shown) [(17), 7-(2-Benzylthiophenyl)-6-ethoxycarbonyl-5-methyl-4,7-dihydropyrazolo[1,5-a]pyrimidine] |  | 6.7 µg | Decrease in CBF ED-50 (left coronary blood flow): 1.1 µg
12 | CCOC(=O)C1=C(C)Nc2ccnn2C1c1ccccc1OC(F)F (stereo not shown) [(18), 7-(2-Difluoromethoxyphenyl)-6-ethoxycarbonyl-5-methyl-4,7-dihydropyrazolo[1,5-a]pyrimidine] |  |  | change in vivo at 0.3 mg/kg [2]: 89%; change in vivo at 0.3 mg/kg [3]: 20%
13 | COc1ccc(CCOC(=O)C2=C(C)Nc3ccnn3C2c2ccccc2C(F)(F)F)cc1OC (stereo not shown) [(19), 6-[2-(3,4-Dimethoxyphenyl)ethyl]oxycarbonyl-5-methyl-7-(2-trifluoromethylphenyl)-4,7-dihydropyrazolo[1,5-a]pyrimidine] |  | 14 µg | Decrease in CBF ED-50 (left coronary blood flow): 1.2 µg
14 | CCOC(=O)C1=C(C)Nc2nnnn2C1c1ccccc1C(F)(F)F (stereo not shown) [(21), 6-Ethoxycarbonyl-5-methyl-7-(2-trifluoromethylphenyl)-4,7-dihydrotetrazolo[1,5-a]pyrimidine] |  |  | change in vivo at 0.3 mg/kg [2]: 63%
15 | CCC(CC)OC(=O)C1=C(C)Nc2ccnn2C1c1ccccc1C(F)(F)F (stereo not shown) [(22), 5-Methyl-6-(3-pentyloxycarbonyl)-7-(2-trifluoromethylphenyl)-4,7-dihydropyrazolo[1,5-a]pyrimidine] |  |  | change in vivo at 0.3 mg/kg [2]: 107%; change in vivo at 0.3 mg/kg [3]: 24%
16 | CCOC(=O)C1=C(CF)Nc2ccnn2C1c1ccccc1C(F)(F)F (stereo not shown) [(24), 6-Ethoxycarbonyl-5-fluoromethyl-7-(2-trifluoromethylphenyl)-4,7-dihydropyrazolo[1,5-a]pyrimidine] |  | 86 µg | Decrease in CBF ED-50 (left coronary blood flow): > 300 µg
17 | CC1=C(C(=O)OC(C)C)C(c2ccccc2Cl)n2nccc2N1 (stereo not shown) [(26), 7-(2-Chlorophenyl)-6-isopropoxycarbonyl-5-methyl-4,7-dihydropyrazolo[1,5-a]pyrimidine] | 13 µg | 133 µg | change in vivo at 0.03 mg/kg [2]: 33%
18 | CC1=C(C(=O)OC(C)C)C(c2cccc(Cl)c2Cl)n2nccc2N1 (stereo not shown) [(28), 7-(2,3-Dichlorophenyl)-6-isopropoxycarbonyl-5-methyl-4,7-dihydropyrazolo[1,5-a]pyrimidine] |  |  | inhibition in vivo at 0.03 mg/kg (arterial blood pressure): 29%; change in vivo at 0.03 mg/kg [2]: 53%
19 | CC1=C(C(=O)OC(C)C)C(c2ccccc2F)n2ncc(C#N)c2N1 (stereo not shown) [(29), 3-Cyano-7-(2-fluorophenyl)-6-isopropoxycarbonyl-5-methyl-4,7-dihydropyrazolo[1,5-a]pyrimidine] | 1.0 µg | > 30 µg | 
20 | CC1=C(C(=O)OC(C)C)C(c2cccc(F)c2F)n2nccc2N1 (stereo not shown) [(31), 7-(2,3-Difluorophenyl)-6-isopropoxycarbonyl-5-methyl-4,7-dihydropyrazolo[1,5-a]pyrimidine] | 1.4 µg | > 30 µg | 
21 | CC1=C(C(=O)OC(C)C)C(c2cc(F)ccc2F)n2nccc2N1 (stereo not shown) [(32), 7-(2,5-Difluorophenyl)-6-isopropoxycarbonyl-5-methyl-4,7-dihydropyrazolo[1,5-a]pyrimidine] | 8 µg | 93 µg | 
22 | CC1=C(C(=O)OC(C)C)C(c2cccc(F)c2Cl)n2nccc2N1 (stereo not shown) [(33), 7-(2-Chloro-3-fluorophenyl)-6-isopropoxycarbonyl-5-methyl-4,7-dihydropyrazolo[1,5-a]pyrimidine] | 1.4 µg | > 30 µg | 
23 | CC1=C(C(=O)OC(CN2CCCCC2)c2ccccc2)C(c2cccc([N+](=O)[O-])c2)n2ccnc2N1 (stereo not drawn) [(34), 1-Phenyl-2-piperidinoethyl 7-methyl-5-(3-nitrophenyl)-5,8-dihydroimidazo[1,2-a]pyrimidine-6-carboxylate (β-form of diastereomer)] | 10.0 µg | > 30 µg | 
24 | CC1=C(C(=O)OC(C)C)C(c2cccc(F)c2F)n2ncc(C#N)c2N1 (stereo not shown) [(35), 3-Cyano-7-(2,3-difluorophenyl)-6-isopropoxycarbonyl-5-methyl-4,7-dihydropyrazolo[1,5-a]pyrimidine] | 0.28 µg | > 30 µg | 
